Assay results: patent US8013170B2, “Substituted pyrrolo[1,2-d][1,4]-diazonines and treatment of brain damage” (priority 2003, dated 2011)
“Also recorded” adds a separate entry of the source. Like-named read-outs stand apart in the source and are kept apart here.

Legend:
[1] = system: rats exposed to hypoxic-ischemic injury (HI); experiment: Hypoxic-ischemic injury (modified Levine model), histological tissue damage score; type: in vivo, rat; details: 100 pM icv, 20 μl over 20 minutes, 2 hours after hypoxic-ischemic insult; histology 5 days after injury; adult male Wistar rats; compared to vehicle treated group, p<0.001
Protocol: To determine whether compounds of the invention might prevent neuronal injury in response to stroke, cardiac arterial bypass graft surgery (CABG) or other hypoxic insults, a series of studies were carried out in rats that had been exposed to hypoxic-ischemic injury (HI). Adult rats (Wistar, 280-310 g, male) were used. The modified Levine model preparation and experimental procedures were used (Rice et al, 1981, Ann. Neurol.: 9: 131-141; Guan et al J., 1993, Cereb. Blood Flow Metab.: 13(4): 609-16). These procedures in brief, consist of an HI injury induced by unilateral carotid artery ligation followed by inhalational asphyxia in the animals with an implanted lateral ventricular cannula. A guide cannula was stereotaxically placed on the top of the dura 1.5 mm to the right of the mid-line and 7.5 mm anterior to the interaural zero plane under halothane anaesthesia. […]
Coronal sections 8 μm in thickness were cut from the striatum, cerebral cortex and hippocampus and were stained with thionin and acid fuchsin. The histological outcome was assessed at three levels: (1) the mid level of the striatum, (2) where the completed hippocampus first appeared and (3) the level where the ventral horn of the hippocampus just appears. The severity of tissue damage was scored in the striatum, cortex and the CA1-2, CA3, CA4 and dentate gyrus of the hippocampus. […]

[2] = system: cerebellar explants; experiment: Cerebellar microexplants exposed to glutamate and 3-nitropropionic acid; live neurons with neurites counted; type: cell-based, rat; details: for numbers of cells having neurites: administered simultaneously with glutamate (1 mM) and 3-nitropropionic acid (0.5 mM), final concentrations 1-100 nM, postnatal day 8 Wistar rat cerebellar microexplants; for recovery from / prevention of glutamate-induced neurotoxicity: compound applied simultaneously, 1-100 nM
Protocol: To determine the effects of the compounds of the invention on neuronal cells in vitro, a series of studies was carried out using cerebellar explants from […]. In vitro systems are suitable for studying neuronal proliferation, neurite growth, formation of nerve bundles and effects of toxins on neural cells, effects that parallel effects observed in vivo. Thus, results of studies using in vitro cerebellar explants are predictive of effects of interventions in vivo.
In a first series of studies, effects of glutamate on cerebellar explants were determined. At physiological concentrations, glutamate is a neurotransmitter in the CNS of mammals, including humans. However, at sufficiently high concentrations, glutamate is neurotoxic, resulting in neuronal cell death. Because glutamate is a naturally occurring neurotransmitter in the CNS of mammals, including humans, and because glutamate neurotoxicity is recognized in the art as reflective of neurotoxicity in general, and including cell death and degeneration, it is a valuable tool useful for identifying and characterizing agents effective in treatment of neurodegeneration and neural cell death.
Cover slips were placed into a large Petri dish and washed in 70% alcohol for 5 minutes, then washed with Millipore H2O. The cover slips were air dried, and coated with Poly-D-Lysine (1 mg/ml stock solution in PBS, 90-100 μl) for 2 hours at 34° C.
Postnatal day 8 Wistar rats were used for the study. The rats were sacrificed and placed in ice for 1 minute, decapitated and the cerebellum removed and placed on ice. Cerebellum tissue was placed in 1 ml of 0.65% glucose-supplemented PBS (10 μl 65% stock D (+)glucose/1 ml PBS) in a large Petri dish, chopped up into smaller sections and triturated with a 1 ml insulin syringe via a 23 G (0.4 mm) needle, and then squirted back into the glucose solution in the large Petri dish. The tissue was sieved through (125 μm pore size gauze) and centrifuged (2 minutes at 60 g) twice to exchange the medium into serum-free BSA-supplemented START V medium (Biochrom, Germany). The second centrifugation step was done with 1 ml of START V medium. The microexplants were reconstituted into 500 μl of START V medium and put on ice.
Two hours after PDL-coating, the slides were washed with Millipore H2O and air dried. Each slide was placed into a small Petri dish (diameter: 35 mm) and 40 μl of START V/cell suspension was added. The tissue was incubated for 2 hours at 34° C. (settlement period). START V-medium (1 ml) was then added to the Petri dish and cultivated at 34° C. in the presence of 5% CO2 in air at 100% humidity for 48 hours.
For the study, certain explant cultures were exposed to vehicle (PBS) only. In the first study (Study 1) 10 μl of toxin 1 (L-glutamate-100 mM in Millipore water; final concentration: 1 mM) and 10 μl of toxin 2 (3-nitropropionic acid-50 mM- pH 7- in Millipore water, final concentration: 0.5 mM) was applied simultaneously with the compounds to be tested (10 mM stock solution prepared in PBS and diluted to final concentrations between 1-100 nM). […]
Neurons in the explants were then evaluated for morphology (presence of neurites) and counted as live cells per microscopic field. Four fields displaying highest cell density were counted per cover slip and the data presented as mean±standard error of the mean (SEM); n=4 each. Statistical significance was evaluated by using the non-paired Student's t-test.

[3] = rcm bond

## O=C(O)C(F)(F)F.O=C(O)CC[C@H](NC(=O)[C@@H]1CC[C@@H]2CCCCNCC(=O)N21)C(=O)O [compound 68, (2S, 9′S, 12′S)-2-{[(1′,4′-Diaza-2′-oxobicyclo[7.3.0]dodecyl)-12′-carbonyl]amino}-1,5-pentanedioic acid trifluoroacetate]
[1]
  tissue damage (damage score) in striatum, cortex and hippocampus: significantly reduced the tissue damage in each brain region examined
[2]
  numbers of cells having neurites: significantly increased the numbers of cells having neurites in a dose-dependent manner
[2]; glutamate 1 mM
  recovery from / prevention of glutamate-induced neurotoxicity: significant recovery; also recorded: prevented glutamate-induced neurotoxicity

## O=C(O)[C@@H]1CCCCNCC(=O)N2CCC[C@H]2C(=O)N[C@H](C(=O)O)C1
[3]; from C=CC[C@H](C[C@H](NC(=O)[C@@H]1CCCN1C(=O)CN(CC=C)C(=O)OCc1ccccc1)C(=O)OCc1ccccc1)C(=O)OCc1ccccc1, Grubbs II generated in situ (bis(tricyclohexylphosphine)benzylideneruthenium dichloride + SIMes.HBF4/KOtBu), benzene, 2.27 mM, 45.0 °C, 65.0 h, 2 steps
  ring closure, yield of all isomers: 58%

## CC(C)(C)OC(=O)[C@@H]1CC[C@H]2CC=CCN(C(=O)OCc3ccccc3)CC(=O)N21
[3]; from C=CC[C@@H]1CC[C@@H](C(=O)OC(C)(C)C)N1C(=O)CN(CC=C)C(=O)OCc1ccccc1, bis(tricyclohexylphosphine)benzylidineruthenium dichloride (Grubbs I), dichloromethane, 4.1 mM, 40.0 °C, 48.0 h
  ring closure, yield of all isomers: 42%

## N[C@H]1CCCC[C@@H]2CC[C@@H](C(=O)N[C@@H](CCC(=O)O)C(=O)O)N2C1=O.O=C(O)C(F)(F)F [compound 48, (2S, 3′S, 8′R, 11′S) 2-{[(3′-Amino-1′-aza-2′-oxobicyclo[6.3.0]-undecyl)-11′-carbonyl]amino}-1,5-pentanedioic acid trifluoroacetate salt]
[2]
  numbers of cells having neurites: significantly increased the numbers of cells having neurites in a dose-dependent manner
[2]; glutamate 1 mM, trifluoroacetate salt
  recovery from / prevention of glutamate-induced neurotoxicity: significant recovery; also recorded: prevented glutamate-induced neurotoxicity

## CC(C)(C)OC(=O)[C@@H]1CC[C@@H]2CC=CCN(C(=O)OCc3ccccc3)CC(=O)N21
[3]; from C=CC[C@H]1CC[C@@H](C(=O)OC(C)(C)C)N1C(=O)CN(CC=C)C(=O)OCc1ccccc1, Grubbs I (bis(tricyclohexylphosphine)benzylideneruthenium dichloride), dichloromethane, 4.03 mM, 40.0 °C, 48.0 h
  ring closure, yield of all isomers: 46%

## N[C@@H](CCC(=O)O)C(=O)O [Glutamate, L-glutamate, reference compound]
[2]; glutamate 1 mM, compared to vehicle-treated controls
  loss of cerebellar neurons having neurites: ~80%
